Source: the supplement of paper PMC11451515

Tested on: P12-Ichikawa
Assay: cell viability relative to DMSO control; higher = less cytotoxic
Conditions: 48 h
Outline: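 Cells were incubated for 48 h at 37°C before CellTiter-Glo One luminescence was read. The cells were NOMO1 or SEM (500 cells/well) or P12-Ichikawa (1000 cells/well) leukemia cells, adapted for at least four passages in each medium and seeded in 1536-well plates (5 μl). Dosing used library compounds in DMSO applied by pin over 11 threefold points, 47 μM to 0.79 nM. Viability is the per-plate percentage of DMSO wells, with cell-free wells as background.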

[1] = HPLM + 10% dialyzed FBS, 0.000781 µM
[2] = HPLM + 10% dialyzed FBS, 0.00234 µM
[3] = HPLM + 10% dialyzed FBS, 0.00702 µM
[4] = HPLM + 10% dialyzed FBS, 0.0211 µM
[5] = HPLM + 10% dialyzed FBS, 0.0632 µM
[6] = HPLM + 10% dialyzed FBS, 0.19 µM
[7] = HPLM + 10% dialyzed FBS, 0.569 µM
[8] = HPLM + 10% dialyzed FBS, 1.71 µM
[9] = HPLM + 10% dialyzed FBS, 5.12 µM
[10] = HPLM + 10% dialyzed FBS, 15.4 µM
[11] = HPLM + 10% dialyzed FBS, 46.1 µM
[12] = RPMI 5 mM glucose + 10% FBS, 0.000781 µM
[13] = RPMI 5 mM glucose + 10% FBS, 0.00234 µM
[14] = RPMI 5 mM glucose + 10% FBS, 0.00702 µM
[15] = RPMI 5 mM glucose + 10% FBS, 0.0211 µM
[16] = RPMI 5 mM glucose + 10% FBS, 0.0632 µM
[17] = RPMI 5 mM glucose + 10% FBS, 0.19 µM
[18] = RPMI 5 mM glucose + 10% FBS, 0.569 µM
[19] = RPMI 5 mM glucose + 10% FBS, 1.71 µM
[20] = RPMI 5 mM glucose + 10% FBS, 5.12 µM
[21] = RPMI 5 mM glucose + 10% FBS, 15.4 µM
[22] = RPMI 5 mM glucose + 10% FBS, 46.1 µM
[23] = RPMI 5 mM glucose + 10% dialyzed FBS, 0.000781 µM
[24] = RPMI 5 mM glucose + 10% dialyzed FBS, 0.00234 µM
[25] = RPMI 5 mM glucose + 10% dialyzed FBS, 0.00702 µM
[26] = RPMI 5 mM glucose + 10% dialyzed FBS, 0.0211 µM
[27] = RPMI 5 mM glucose + 10% dialyzed FBS, 0.0632 µM
[28] = RPMI 5 mM glucose + 10% dialyzed FBS, 0.19 µM
[29] = RPMI 5 mM glucose + 10% dialyzed FBS, 0.569 µM
[30] = RPMI 5 mM glucose + 10% dialyzed FBS, 1.71 µM
[31] = RPMI 5 mM glucose + 10% dialyzed FBS, 5.12 µM
[32] = RPMI 5 mM glucose + 10% dialyzed FBS, 15.4 µM
[33] = RPMI 5 mM glucose + 10% dialyzed FBS, 46.1 µM

SMILES | cell viability [1] [%] | cell viability [2] [%] | cell viability [3] [%] | cell viability [4] [%] | cell viability [5] [%] | cell viability [6] [%] | cell viability [7] [%] | cell viability [8] [%] | cell viability [9] [%] | cell viability [10] [%] | cell viability [11] [%] | cell viability [12] [%] | cell viability [13] [%] | cell viability [14] [%] | cell viability [15] [%] | cell viability [16] [%] | cell viability [17] [%] | cell viability [18] [%] | cell viability [19] [%] | cell viability [20] [%] | cell viability [21] [%] | cell viability [22] [%] | cell viability [23] [%] | cell viability [24] [%] | cell viability [25] [%] | cell viability [26] [%] | cell viability [27] [%] | cell viability [28] [%] | cell viability [29] [%] | cell viability [30] [%] | cell viability [31] [%] | cell viability [32] [%] | cell viability [33] [%]
c1ccc2c(-c3cnn4cc(-c5ccc(N6CCNCC6)cc5)cnc34)ccnc2c1 | 97.9 | 103 | 150 | 144 | 151 | 141 | 146 | 126 | 125 | 121 | 59.3 | 88.7 | 91.2 | 161 | 182 | 191 | 166 | 142 | 123 | 111 | 107 | 2.89 | 96 | 96.6 | 175 | 169 | 168 | 164 | 168 | 138 | 119 | 120 | 3.35
C[C@H]1CCC/C=C/C2C[C@H](O)C[C@H]2[C@H](O)/C=C/C(=O)O1 (stereo not given in full) | 90.4 | 102 | 94.8 | 70.4 | 32.8 | 18.7 | 9.39 | 4.66 | 2.87 | 2.17 | 2.02 | 74 | 75.3 | 81.5 | 60.1 | 10.9 | 9.73 | 6.57 | 4.48 | 1.69 | 1.14 | 1.83 | 104 | 81.9 | 86.1 | 62.7 | 12.7 | 12.8 | 6.09 | 4.16 | 3.23 | 2.71 | 1.83
CNC(=O)c1c(F)cccc1Nc1nc(Nc2cc3c(cc2OC)CCN3C(=O)CN(C)C)nc2[nH]ccc12 | 91.4 | 97 | 110 | 110 | 111 | 109 | 112 | 108 | 81.5 | 87.4 | 51 | 112 | 113 | 105 | 123 | 114 | 122 | 120 | 110 | 113 | 113 | 51.3 | 110 | 117 | 120 | 119 | 129 | 122 | 121 | 118 | 110 | 103 | 43.6
Cn1c(=O)c2c(ncn2CC(O)CO)n(C)c1=O (stereo not given) | 113 | 112 | 110 | 111 | 114 | 116 | 115 | 111 | 108 | 117 | 124 | 109 | 104 | 118 | 119 | 124 | 122 | 127 | 117 | 128 | 134 | 128 | 112 | 114 | 114 | 116 | 114 | 115 | 124 | 117 | 125 | 126 | 119
CC(C)(C)C1=NC2=C([NH]1)C3=CC=C(F)C=C3C4=C2\C=C/NC4=O | – | – | – | – | – | – | – | – | – | – | – | 118 | 133 | 123 | 134 | 123 | 122 | 113 | 108 | 69.7 | 17.8 | 72.1 | – | – | – | – | – | – | – | – | – | – | –
COC1=CC=C2C(=CC=NC2=C1)OC3=CC=C(NC(=O)\C4=C(C)\N(CC(C)(C)O)N(C4=O)C5=CC=CC=C5)C=C3F | 121 | 123 | 122 | 123 | 123 | 132 | 135 | 132 | 129 | 122 | 118 | – | – | – | – | – | – | – | – | – | – | – | – | – | – | – | – | – | – | – | – | – | –
CC(=O)SCC(Cc1ccccc1)C(=O)NCC(=O)OCc1ccccc1 (stereo not given) | 93.4 | 92.2 | 103 | 104 | 103 | 102 | 105 | 103 | 101 | 66.9 | 8.75 | 105 | 93.6 | 106 | 102 | 99.9 | 98.2 | 101 | 100 | 98.6 | 54 | 59.3 | 85.3 | 91.2 | 96.2 | 94.3 | 104 | 95.5 | 101 | 103 | 90.1 | 34.7 | 50.3
CN(C)c1ccc(C(=O)NCCCCCCC(=O)NO)cc1 | 107 | 102 | 114 | 104 | 110 | 111 | 102 | 44 | 1.14 | 0.537 | 1.62 | 101 | 104 | 109 | 110 | 116 | 108 | 99.5 | 46.9 | 1.46 | 0.517 | 1.9 | 94.9 | 105 | 113 | 116 | 122 | 121 | 98.6 | 25.4 | 1.41 | 0.539 | 1.68
CCN(CC)CCOC1=CC=C(NC2=NC=C3\C=C(/C(=O)N(C)C3=N2)C4=C(Cl)C=CC=C4Cl)C=C1 | 107 | 114 | 109 | 84.8 | 111 | 96.5 | 99.6 | 109 | 21.8 | 5.01 | 4.01 | 122 | 120 | 118 | 85.2 | 109 | 101 | 113 | 106 | 13.3 | 4.01 | 6.43 | 118 | 124 | 122 | 94.6 | 109 | 96.9 | 111 | 113 | 12.1 | 4.8 | 6.66
CC(C)[C@H](CO)Nc1nc(Nc2ccc(C(=O)O)c(Cl)c2)c2ncn(C(C)C)c2n1 | 119 | 120 | 116 | 121 | 119 | 115 | 96.1 | 103 | 87.1 | 96.3 | 92.9 | 111 | 124 | 117 | 134 | 127 | 130 | 95.7 | 88.4 | 89.2 | 93 | 69.9 | 119 | 122 | 130 | 111 | 120 | 129 | 102 | 94 | 87.1 | 102 | 73.7
CCOc1cc2c(c(F)c1OCC)C(=N)N(CC(=O)c1cc(N3CCOCC3)c(OC)c(C(C)(C)C)c1)C2 | 104 | 105 | 107 | 114 | 112 | 111 | 115 | 115 | 116 | 118 | 100 | 110 | 124 | 128 | 118 | 126 | 132 | 128 | 127 | 124 | 131 | 108 | 108 | 114 | 111 | 118 | 125 | 117 | 119 | 117 | 113 | 120 | 105
CC(C)c1ccc2oc3nc(N)c(C(=O)O)cc3c(=O)c2c1 | 120 | 119 | 119 | 124 | 130 | 132 | 128 | 131 | 125 | 129 | 118 | – | – | – | – | – | – | – | – | – | – | – | – | – | – | – | – | – | – | – | – | – | –
